Results published in patent publication US20260137819A1 (Radionetics Oncology, Inc., priority 2022, published 2026).
Starred links: 1 amine or outer side, 2 acyl side, 3 side chain; linkers in the order of their positions; H or OH if unused. Non-standard residues stand in square brackets, D forms with d. Residues, ends and D or L forms follow the SMILES beside them. Groups on a side chain read outwards from the residue. *: point of attachment. X1 = COc1cc2c(cc1-c1cccc(N*)c1)-c1c(c(C(=O)N3CCOCC3(C)C)nn1-c1cc(Cl)cc(Cl)c1)CO2; DOTA = O=C(O)CN1CCN(CC(=O)O)CCN(CC(=O)*)CCN(CC(=O)O)CC1; Suc = O=C(CCC(=O)[*:2])[*:1]

The molecules below were run against T1, human follicle-stimulating hormone receptor (FSHR) (Homo sapiens, UniProt P23945) (assay: Measurement of agonist cAMP production by activation of human FSHR). Conditions: CHO-K1 human FSHR cells, 30 minutes at 37° C., HTRF cAMP kit; read-out: hFSHR Agonist cAMP EC50.
T1 construct: host or cells: CHO-K1
T1 sequence (P23945 18-695): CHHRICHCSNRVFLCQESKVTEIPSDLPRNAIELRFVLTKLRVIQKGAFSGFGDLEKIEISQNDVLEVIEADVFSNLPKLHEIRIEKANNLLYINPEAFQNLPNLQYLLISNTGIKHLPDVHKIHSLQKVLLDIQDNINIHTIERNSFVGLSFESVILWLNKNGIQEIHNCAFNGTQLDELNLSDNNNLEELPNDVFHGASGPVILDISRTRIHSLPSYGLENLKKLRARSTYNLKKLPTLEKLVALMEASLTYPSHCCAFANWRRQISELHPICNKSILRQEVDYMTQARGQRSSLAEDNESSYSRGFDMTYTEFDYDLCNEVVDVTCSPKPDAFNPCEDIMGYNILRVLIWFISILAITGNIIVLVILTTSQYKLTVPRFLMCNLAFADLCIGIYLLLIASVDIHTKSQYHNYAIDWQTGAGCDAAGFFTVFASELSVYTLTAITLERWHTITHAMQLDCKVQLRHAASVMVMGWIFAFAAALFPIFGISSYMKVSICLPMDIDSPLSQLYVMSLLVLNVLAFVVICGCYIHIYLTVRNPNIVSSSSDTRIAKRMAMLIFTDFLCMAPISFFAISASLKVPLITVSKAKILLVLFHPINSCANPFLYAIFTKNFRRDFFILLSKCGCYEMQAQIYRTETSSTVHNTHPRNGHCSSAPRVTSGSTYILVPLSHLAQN
Type: cell-based
Outline: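 cAMP output was measured by HTRF after 30 min at 37 °C agonist exposure (0–10,000 nM final) in stably FSHR-transfected CHO-K1 cells. Lysate cAMP was read off a standard curve and fitted to obtain half-maximal EC50.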

EC50 [µM]	SMILES
< 0.01	COc1cc2c(cc1-c1cccc(NC(=O)CCOCCOCCNC(=O)[C@H](CS(=O)(=O)O)NC(=O)CN3CCN(CC(=O)O)CCN(CC(=O)O)CCN(CC(=O)O)CC3)c1)-c1c(c(C(=O)N3CCOCC3(C)C)nn1-c1cc(Cl)cc(Cl)c1)CO2 [Compound 69]
< 0.01	COc1cc2c(cc1-c1cccc(NC(=O)CCOCCNC(=O)CN3CCN(CC(=O)O)CCN(CC(=O)O)CCN(CC(=O)O)CC3)c1)-c1c(c(C(=O)N3CCOCC3(C)C)nn1-c1cc(Cl)cc(Cl)c1)CO2 [Compound 20, 2,2′,2″-(10-(2-((2-(3-((3-(1-(3,5-dichlorophenyl)-3-(3,3-dimethylmorpholine-4-carbonyl)-7-methoxy-1,4-dihydrochromeno[4,3-c]pyrazol-8-yl)phenyl)amino)-3-oxopropoxy)ethyl)amino)-2-oxoethyl)-1,4,7,10-tetraazacyclododecane-1,4,7-triyl)triacetic acid]
> 0.1	COCCOCCOCCOCCOCCOCCC(=O)N[C@H](CC(=O)N1CC2(CCCN2C(=O)CNC(=O)CN2CCN(CC(=O)O)CCN(CC(=O)O)CCN(CC(=O)O)CC2)C1)C(=O)Nc1cccc(-c2cc3c(cc2OC)OCc2c(C(=O)N4CCOCC4(C)C)nn(-c4cc(Cl)cc(Cl)c4)c2-3)c1 [Compound 25, (R)-2,2′,2″-(10-(2-((2-(2-(22-((3-(1-(3,5-dichlorophenyl)-3-(3,3-dimethylmorpholine-4-carbonyl)-7-methoxy-1,4-dihydrochromeno[4,3-c]pyrazol-8-yl)phenyl)carbamoyl)-20-oxo-2,5,8,11,14,17-hexaoxa-21-azatetracosan-24-oyl)-2,5-diazaspiro[3.4]octan-5-yl)-2-oxoethyl)amino)-2-oxoethyl)-1,4,7,10-tetraazacyclododecane-1,4,7-triyl)triacetic acid]
< 0.01	COc1cc2c(cc1-c1cccc(NC(=O)CCOCCOCCOCCOCCOCCOCCNC(=O)CN3CCN(CC(=O)O)CCN(CC(=O)O)CCN(CC(=O)O)CC3)c1)-c1c(c(C(=O)N3CCOCC3(C)C)nn1-c1cc(Cl)cc(Cl)c1)CO2 [Compound 16A]
0.01 to 0.1	COc1cc2c(cc1-c1cccc(NC(=O)C3CCC(CNC(=O)C(CS(=O)(=O)O)NC(=O)CN4CCN(CC(=O)O)CCN(CC(=O)O)CCN(CC(=O)O)CC4)CC3)c1)-c1c(c(C(=O)N3CCOCC3(C)C)nn1-c1cc(Cl)cc(Cl)c1)CO2 [Compound 65, 2,2′,2″-(10-(2-(((R)-1-((((1r,4R)-4-((3-(1-(3,5-dichlorophenyl)-3-(3,3-dimethylmorpholine-4-carbonyl)-7-methoxy-1,4-dihydrochromeno[4,3-c]pyrazol-8-yl)phenyl)carbamoyl)cyclohexyl)methyl)amino)-1-oxo-3-sulfopropan-2-yl)amino)-2-oxoethyl)-1,4,7,10-tetraazacyclododecane-1,4,7-triyl)triacetic acid]

Second part, the molecule before the results:

SMILES	EC50 [µM]
COc1cc2c(cc1-c1cccc(NC(=O)CCOCCOCCOCCN(CCOCCOCCOCCNC(=O)CN3CCN(CC(=O)O)CCN(CC(=O)O)CCN(CC(=O)O)CC3)CCOCCOCCOCCNC(=O)CN3CCN(CC(=O)O)CCN(CC(=O)O)CCN(CC(=O)O)CC3)c1)-c1c(c(C(=O)N3CCOCC3(C)C)nn1-c1cc(Cl)cc(Cl)c1)CO2 [Compound 13]	0.01 to 0.1
COc1cc2c(cc1-c1cncc(NC(=O)CCCNC(=O)[C@@H](CCCNC(=N)N)NC(=O)CCNC(=O)CN3CCN(CC(=O)O)CCN(CC(=O)O)CCN(CC(=O)O)CC3)c1)-c1c(c(C(=O)N3CCOCC3(C)C)nn1-c1cc(Cl)cc(Cl)c1)CO2 [Compound 81, (R)-2,2′,2″-(10-(2-((3-((1-((4-((5-(1-(3,5-dichlorophenyl)-3-(3,3dimethylmorpholine-4-carbonyl)-7-methoxy-1,4-dihydrochromeno|4,3-clpyrazol-8-yl)pyridin-3-yl)amino)-4-oxobutyl)amino)-5-guanidino-1-oxopentan-2-yl)amino)-3-oxopropyl)amino)-2-oxoethyl)-1,4,7,10-tetraazacyclododecane-1,4,7-triyl)triacetic acid--2,2,2-trifluoroacetic acid (1/1)]	< 0.01
COc1cc2c(cc1-c1cccc(NC(=O)NCCOCCOCCOCCOCCNC(=O)CN3CCN(CC(=O)O)CCN(CC(=O)O)CCN(CC(=O)O)CC3)c1)-c1c(c(C(=O)N(C)C(C)(C)C)nn1-c1cc(Cl)cc(Cl)c1)CO2 [Compound 2, 2,2′,2″-(10-(1-((3-(3-(tert-butyl(methyl)carbamoyl)-1-(3,5-dichlorophenyl)-7-methoxy-1,4-dihydrochromeno|4,3-c|pyrazol-8-yl)phenyl)amino)-1,18-dioxo-5,8,11,14-tetraoxa-2,17-diazanonadecan-19-yl)-1,4,7,10-tetraazacyclododecane-1,4,7-triyl)triacetic acid]	< 0.01
COc1cc2c(cc1-c1cccc(OCCCNC(=O)[C@@H](CCC(=O)O)NCCOCCNC(=O)[C@H](CS(=O)(=O)O)NC(=O)CN3CCN(CC(=O)O)CCN(CC(=O)O)CCN(CC(=O)O)CC3)c1)-c1c(c(C(=O)N3CCOCC3(C)C)nn1-c1cc(Cl)cc(Cl)c1)CO2 [Compound 74, 2,2′,2″-(10-((4R,13R)-13-(2-carboxyethyl)-18-(3-(1-(3,5-dichlorophenyl)-3(3,3-dimethylmorpholine-4-carbonyl)-7-methoxy-1,4-dihydrochromeno[4,3-c]pyrazol-8-yl)phenoxy)-2,5,14-trioxo-4-(sulfomethyl)-9-oxa-3,6,12,15-tetraazaoctadecyl)-1,4,7,10-tetraazacyclododecane-1,4,7-triyl)triacetic acid--2,2,2-trifluoroacetic acid (1/1)]	0.01 to 0.1
COc1cc2c(cc1-c1cccc(C(=O)NCCOCCOCCOCCOCCOCCOCCNC(=O)CN3CCN(CC(=O)O)CCN(CC(=O)O)CCN(CC(=O)O)CC3)c1)-c1c(c(C(=O)N(C)C(C)(C)C)nn1-c1cc(Cl)cc(Cl)c1)CO2 [Compound 4]	< 0.01
COc1cc2c(cc1-c1cncc(NCCCNC(=O)CCOCCNC(=O)CN3CCN(CC(=O)O)CCN(CC(=O)O)CCN(CC(=O)O)CC3)c1)-c1c(c(C(=O)N3CCOCC3(C)C)nn1-c1cc(F)cc(F)c1)CO2 [Compound 62]	0.01 to 0.1
COc1cc2c(cc1-c1cccc(NC(=O)CCC(=O)NCCCC[C@@H](NC(=O)[C@@H](CO)NC(=O)[C@@H](CC(N)=O)NC(=O)[C@@H](C)NC(=O)CN3CCN(CC(=O)O)CCN(CC(=O)O)CCN(CC(=O)O)CC3)C(=O)N[C@H](CC(N)=O)C(=O)N[C@H](CO)C(=O)N[C@H](C)C(N)=O)c1)-c1c(c(C(=O)N3CCOCC3(C)C)nn1-c1cc(Cl)cc(Cl)c1)CO2 [Compound 97] ({DOTA}-[dA][dN][dS][dK]([Suc-X1])[dN][dS][dA]-NH2)	0.01 to 0.1
COc1cc2c(cc1-c1cccc(/C(C)=N/OCCNC(=O)CN(C)C(=O)CN(C)C(=O)CN3CCN(CC(=O)O)CCN(CC(=O)O)CCN(CC(=O)O)CC3)c1)-c1c(c(C(=O)N3CCOCC3(C)C)nn1-c1cc(Cl)cc(Cl)c1)CO2 [Compound 42, (E)-2,2′,2″-(10-(1-(3-(1-(3,5-dichlorophenyl)-3-(3,3-dimethylmorpholine-4carbonyl)-7-methoxy-1,4-dihydrochromeno|4,3-c|pyrazol-8-yl)phenyl)-9,12-dimethyl-7,10,13-trioxo-3-oxa-2,6,9,12-tetraazatetradec-1-en-14-yl)-1,4,7,10-tetraazacyclododecane-1,4,7-triyl)triacetic acid]	0.01 to 0.1
